Data reported in US20240207427A1, “SELECTIVE DRUG RELEASE FROM INTERNALIZED CONJUGATES OF BIOLOGICALLY ACTIVE COMPOUNDS” (priority 2021, published 2024).
Where two headings read alike, the source gives them in different places.

Legend:
Format in all cases: cell-based
[1] = system: Hodgkin's lymphoma cells (L540cy); test: In vitro potency (CellTiter-Glo, 96 h), L540cy
Experimental: (§1) In vitro potency was assessed on multiple cancer cell lines. All cell lines were authenticated by STR profiling at IDEXX Bioresearch and cultured for no more than 2 months after resuscitation. Cells cultured in log-phase growth were seeded for 24 hours in 96-well plates containing […] RPMI 1640 supplemented with 20% FBS. Serial dilutions of antibody-drug conjugates in cell culture media were prepared at 4× working concentrations, and 50 μL of each dilution was added to the 96-well plates. Following addition of test articles, cells were incubated with test articles for 4 days at 37 0° C. After 96 hours, growth inhibition was assessed by CellTiterGlo® (Promega, Madison, WI) and luminescence was measured on a plate reader.
(§2) In Table 7, IC50 values for ADCs are given in ng/mL. Cell viability was determined by CellTiter-Glo staining after 96 h exposure to ADC. ND=Not Determined. Ag2 is an antibody targeting a ubiquitous and readily internalizable antigen. The cancer cell lines tested are renal carcinoma cells (786-0), melanoma cells (A2058), pancreatic cancer cells (BxPC3), non-small-cell lung cancer cells (Calu1), anaplastic large cell lymphoma cells (DEL, DELBVR, Karpas299), Hodgkin's lymphoma cells (L540cy), (Ls174T), breast cancer cells (MDA-MB-231), acute myeloid leukemia cells (MOLM-13), and B-lymphocyte cancer cells (SU-DHL4).
(§3) In vitro potency was assessed on multiple cancer cell lines. All cell lines were authenticated by STR profiling at IDEXX Bioresearch and cultured for no more than 2 months after resuscitation. Cells cultured in log-phase growth were seeded for 24 hours in 96-well plates containing […] RPMI 1640 supplemented with 20% FBS. Following addition of test articles, cells were incubated with test articles for 4 days at 37 0° C. After 96 hours, growth inhibition was assessed by CellTiterGlo® (Promega, Madison, WI) and luminescence was measured on a plate reader.
(§4) Cell viability was determined by CellTiter-Glo staining after 96 h exposure to the compound. ND=Not Determined. The cancer cell lines tested are renal carcinoma cells (786-0), melanoma cells (A2058), pancreatic cancer cells (BxPC3), non-small-cell lung cancer cells (Calu1), anaplastic large cell lymphoma cells (DEL, DELBVR, Karpas299), Hodgkin's lymphoma cells (L540cy), (Ls 174T), breast cancer cells (MDA-MB-231), acute myeloid leukemia cells (MOLM-13), B-lymphocyte cancer cells (SU-DHL4), multiple myeloma cells (MM.1R), (U266), and melanoma cells (SK-MEL-5).
as §1, with “37°” for “37 0°”
(§5) In the following Tables IC50 values for ADCs and CPT free drugs are given in ng/mL and nmol/L concentrations. Cell viability was determined by CellTiter-Glo staining after 96 h exposure to ADC or CPT free drug.
(§6) Cell viability was determined by CellTiter-Glo staining after 96 h exposure to ADC. ND=Not Determined.

[2] = system: anaplastic large cell lymphoma cells (Karpas299); test: In vitro potency (CellTiter-Glo, 96 h), Karpas299; settings: Homo sapiens, KARPAS-299, 96 h
Experimental: as §1, §2, §3, §4
as §1, with “37°” for “37 0°”
as §5, §6

Ls174T cells = test: In vitro potency (CellTiter-Glo, 96 h), Ls174T; settings: Homo sapiens, LS174T, 96 h
Experimental: as §1, §2, §3, §4
as §1, with “37°” for “37 0°”
as §5, §6

[3] = system: acute myeloid leukemia cells (MOLM-13); test: In vitro potency (CellTiter-Glo, 96 h), MOLM-13; settings: Homo sapiens, MOLM-13, 96 h
Experimental: as §1, §2, §3, §4
as §1, with “37°” for “37 0°”
as §5, §6

[4] = system: B-lymphocyte cancer cells (SU-DHL4); test: In vitro potency (CellTiter-Glo, 96 h), SU-DHL-4; settings: Homo sapiens, SU-DHL-4, 96 h
Experimental: as §1, §2, §3, §4
as §1, with “37°” for “37 0°”
as §5, §6

[5] = system: renal carcinoma cells (786-O); test: In vitro potency (CellTiter-Glo, 96 h), 786-O; settings: Homo sapiens, 786-0, 96 h
Experimental: as §1, §2, §3, §4
as §1, with “37°” for “37 0°”
as §5, §6

[6] = system: pancreatic cancer cells (BxPC3); test: In vitro potency (CellTiter-Glo, 96 h), BxPC3; settings: Homo sapiens, BXPC-3, 96 h
Experimental: as §1, §2, §3, §4
as §1, with “37°” for “37 0°”
as §5, §6

[7] = system: breast cancer cells (MDA-MB-231); test: In vitro potency (CellTiter-Glo, 96 h), MDA-MB-231; settings: Homo sapiens, MDA-MB-231, 96 h
Experimental: as §1, §2, §3, §4
as §1, with “37°” for “37 0°”
as §5, §6

[8] = system: anaplastic large cell lymphoma cells (DEL); test: In vitro potency (CellTiter-Glo, 96 h), DEL
Experimental: as §1, §2, §3, §4
as §1, with “37°” for “37 0°”
as §5, §6

[9] = system: anaplastic large cell lymphoma cells (DELBVR); test: In vitro potency (CellTiter-Glo, 96 h), DELBVR
Experimental: as §1, §2, §3, §4
as §1, with “37°” for “37 0°”
as §5, §6

melanoma cells (A2058) = test: In vitro potency (CellTiter-Glo, 96 h), A2058; settings: Homo sapiens, A2058, 96 h, read-out: A2058 IC50
Experimental: as §1, §2, §3, §4
as §1, with “37°” for “37 0°”
as §5, §6

[10] = camptothecin free drug, read-out: L540cy IC50
[11] = camptothecin free drug, 96 h, read-out: Karpas299 IC50
[12] = camptothecin free drug, read-out: Ls174T IC50
[13] = camptothecin free drug, 96 h, read-out: MOLM-13 IC50
[14] = camptothecin free drug, 96 h, read-out: SU-DHL-4 IC50
[15] = camptothecin free drug, 96 h, read-out: 786-O IC50
[16] = camptothecin free drug, 96 h, read-out: BxPC3 IC50
[17] = camptothecin free drug, 96 h, read-out: MDAMB231 IC50
[18] = camptothecin free drug, read-out: DEL IC50
[19] = camptothecin free drug, read-out: DELBVR IC50
[20] = read-out: L540cy IC50, camptothecin free drug, 96 h
[21] = read-out: Karpas299 IC50, camptothecin free drug, 96 h
[22] = read-out: Ls174T IC50, camptothecin free drug, 96 h
[23] = read-out: MOLM-13 IC50, camptothecin free drug, 96 h
[24] = read-out: SU-DHL-4 IC50, camptothecin free drug, 96 h
[25] = read-out: 786-O IC50, camptothecin free drug, 96 h
[26] = read-out: BxPC3 IC50, camptothecin free drug, 96 h
[27] = read-out: DEL IC50, camptothecin free drug, 96 h
[28] = read-out: DELBVR IC50, camptothecin free drug, 96 h
[29] = read-out: MDAMB231 IC50, camptothecin free drug, 96 h
[30] = read-out: L540cy IC50, Table 29, CPT free drugs, Hodgkin's lymphoma cells L540cy, CellTiter-Glo
[31] = read-out: Karpas299 IC50, Table 29, CPT free drugs, anaplastic large cell lymphoma cells Karpas299, 96 h, CellTiter-Glo
[32] = read-out: Ls174T IC50, Table 29, CPT free drugs, Ls174T cells, CellTiter-Glo
[33] = read-out: MOLM-13 IC50, Table 29, CPT free drugs, acute myeloid leukemia cells MOLM-13, 96 h, CellTiter-Glo
[34] = read-out: SU-DHL-4 IC50, Table 29, CPT free drugs, B-lymphocyte cancer cells SU-DHL4, 96 h, CellTiter-Glo
[35] = read-out: 786-O IC50, Table 29, CPT free drugs, renal carcinoma cells 786-O, 96 h, CellTiter-Glo
[36] = read-out: BxPC3 IC50, Table 29, CPT free drugs, pancreatic cancer cells BxPC3, 96 h, CellTiter-Glo
[37] = read-out: MDAMB231 IC50, Table 29, CPT free drugs, breast cancer cells MDA-MB-231, 96 h, CellTiter-Glo
[38] = read-out: DEL IC50, Table 29, CPT free drugs, anaplastic large cell lymphoma cells DEL, CellTiter-Glo
[39] = read-out: DELBVR IC50, Table 29, CPT free drugs, anaplastic large cell lymphoma cells DELBVR, CellTiter-Glo

## CC[C@@]1(O)C(=O)OCc2c1cc1n(c2=O)Cc2c-1nc1cc3c(cc1c2CNCCN1CCN(C(=O)OC(C)(C)C)CC1)OCO3 [Compound 7f]
[1]; [10]
  IC50: 66 nM
[2]; [11]
  IC50: 162 nM
Ls174T cells; [12]
  IC50: 69 nM
[3]; [13]
  IC50: > 1000 nM
[4]; [14]
  IC50: 83 nM
[5]; [15]
  IC50: 130 nM
[6]; [16]
  IC50: 155 nM
[7]; [17]
  IC50: 776 nM
[8]; [18]
  IC50: 52 nM
[9]; [19]
  IC50: 52 nM
Melanoma cells (A2058); camptothecin free drug, 96 h
  IC50: 41 nM

## CC[C@@]1(O)C(=O)OCc2c1cc1n(c2=O)Cc2c-1nc1cc3c(cc1c2CN1CCN(CCNC(=O)OC(C)(C)C)CC1)OCO3 [Compound 7af]
[1]; [10]
  IC50: 62 nM
[2]; [11]
  IC50: 127 nM
Ls174T cells; [12]
  IC50: 80 nM
[3]; [13]
  IC50: 110 nM
[4]; [14]
  IC50: 48 nM
[5]; [15]
  IC50: 177 nM
[6]; [16]
  IC50: 176 nM
[7]; [17]
  IC50: 1000 nM
[8]; [18]
  IC50: 15 nM
[9]; [19]
  IC50: 24 nM
Melanoma cells (A2058); camptothecin free drug, 96 h
  IC50: 38 nM

## CC[C@@]1(O)C(=O)OCc2c1cc1n(c2=O)Cc2c-1nc1cc3c(cc1c2CNCCN1CCN(C)CC1)OCO3 [Compound 7b]
[1]; [20]
  IC50: 87 nM
[2]; [21]
  IC50: 158 nM
Ls174T cells; [22]
  IC50: 77 nM
[3]; [23]
  IC50: 533 nM
[4]; [24]
  IC50: 94 nM
[5]; [25]
  IC50: 162 nM
[6]; [26]
  IC50: 172 nM
[8]; [27]
  IC50: 54 nM
[9]; [28]
  IC50: 55 nM
Melanoma cells (A2058)
  IC50: 55 nM

## CC[C@@]1(O)C(=O)OCc2c1cc1n(c2=O)Cc2c-1nc1cc3c(cc1c2CNCCCN)OCO3 [Compound 7v]
[1]; [20]
  IC50: 87 nM
[2]; [21]
  IC50: 132 nM
Ls174T cells; [22]
  IC50: 146 nM
[3]; [23]
  IC50: > 1000 nM
[4]; [24]
  IC50: 99 nM
[5]; [25]
  IC50: 174 nM
[6]; [26]
  IC50: 225 nM
[7]; [29]
  IC50: 1000 nM
[8]; [27]
  IC50: 58 nM
[9]; [28]
  IC50: 57 nM
Melanoma cells (A2058)
  IC50: 69 nM

## CC[C@@]1(O)C(=O)OCc2c1cc1n(c2=O)Cc2c-1nc1cc3c(cc1c2CNCC(O)CN1CCOCC1)OCO3 (stereo partly shown) [Compound 7i]
[1]; [30]
  IC50: 48 nM
[1]; [20]
  IC50: 63 nM
[2]; [31]
  IC50: 84 nM
[2]; [21]
  IC50: 154 nM
Ls174T cells; [32]
  IC50: 110 nM
Ls174T cells; [22]
  IC50: 72 nM
[3]; [33]
  IC50: 183 nM
[3]; [23]
  IC50: 312 nM
[4]; [34]
  IC50: 32 nM
[4]; [24]
  IC50: 72 nM
[5]; [35]
  IC50: 118 nM
[5]; [25]
  IC50: 128 nM
[6]; [36]
  IC50: 57 nM
[6]; [26]
  IC50: 106 nM
[7]; [37]
  IC50: 183 nM
[7]; [29]
  IC50: 1000 nM
[8]; [38]
  IC50: 9 nM
[8]; [27]
  IC50: 38 nM
[9]; [39]
  IC50: 17 nM
[9]; [28]
  IC50: 51 nM
Melanoma cells (A2058)
  IC50: 33 nM

## CC[C@@]1(O)C(=O)OCc2c1cc1n(c2=O)Cc2c-1nc1cc3c(cc1c2CNC1CCOCC1)OCO3 [Compound 7k]
[1]; [20]
  IC50: 20 nM
[2]; [21]
  IC50: 46 nM
Ls174T cells; [22]
  IC50: 67 nM
[3]; [23]
  IC50: 34 nM
[4]; [24]
  IC50: 19 nM
[5]; [25]
  IC50: 57 nM
[6]; [26]
  IC50: 63 nM
[7]; [29]
  IC50: 207 nM
[8]; [27]
  IC50: 6 nM
[9]; [28]
  IC50: 14 nM
Melanoma cells (A2058)
  IC50: 14 nM

## CC[C@@]1(O)C(=O)OCc2c1cc1n(c2=O)Cc2c-1nc1cc3c(cc1c2CNC[C@H](O)CO)OCO3 [Compound 7n]
[1]; [30]
  IC50: 23 nM
[2]; [31]
  IC50: 57 nM
Ls174T cells; [32]
  IC50: 39 nM
[3]; [33]
  IC50: 137 nM
[4]; [34]
  IC50: 21 nM
[5]; [35]
  IC50: 66 nM
[6]; [36]
  IC50: 47 nM
[7]; [37]
  IC50: 96 nM
[8]; [38]
  IC50: 5 nM
[9]; [39]
  IC50: 6 nM
